Data from patent US20080275105A1, “Selective Muscle Relaxant and Pharmaceutical Compositions” (UNIVERSIDADE FEDERAL DO RIO DE JANEIROUFRJ, priority 2004, published 2008).
“And” between values parts separate entries of the source, which are not always exact repeats. Identical values can stand only once. “Also recorded” adds a separate entry of the source.

Key:
rat papillary muscle = assay: Isometric tension (electrically stimulated twitches) in papillary muscle; format: cell-based; settings: for maximum alterations to the papillary muscle twitches: 10 to 100 μM, not significant; for amplitude of the papillary muscle twitches: 100 μM, 1 Hz stimulation
Method: (§1) Once the experiments have been carried out, the findings were subject to statistical analyses being expressed in average ±SEM as a percentage of the control value, and graphs were drawn up using the Sigma Plot 5.0 program to represent the data obtained. For the statistical analysis of the effects on the different muscle tissues, the difference was assessed among the concentrations of the same derivative, using the “t” Student test. In order to ascertain the difference among the derivatives, the one-way ANOVA test was used. The differences were considered as significant for p<0.05. The Cl50 was expressed as an average ±SEM of the values obtained for each experiment through non-linear regression based on the y=yo+ae^−bx equation.
(§2) After anesthesia with ethyl ether, male Wistar rats weighing between 240-280 grams were sacrificed through cervical dislocation. The heart was removed rapidly and the papillary muscle and the ventricular bundles were dissected in Tyrode's solution, whose composition is given in Table 2 below, at room temperature. The muscles were placed in vertical chambers with a capacity of 10 mL and fixed at their extremities: the lower portion to a hook located in the stimulation electrode fixation rod and the upper portion connected to a power transducer (Grass FT03) for recording the muscle twitches.
(§3) The muscles were stimulated electrically with supra-maximum voltage (50-60 V) through a stimulator (Grass S88) at a frequency of 1.0 Hz. The signals captured by the transducer were amplified (Cyberamp 380, Axon Instruments) and the isometric tension was digitized (Digidata 1322A, Axon Instruments) and stored on a computer. The screening and analysis of the experiment was handled through the Axoscope 8.0 program (Axon Instruments) (Sudo & cols., 2001). The chamber solution was bubbled continuously with a carbogenic mixture (95% O2/5% CO2) and kept at a temperature of 37° C.
(§4) After the stabilization of the muscle twitches (approximately 30 min) the records were carried out in the absence (control) and presence of rising concentrations (10 to 100 μM) of the different L294 analogs, diluted in DMSO. The records were carried out in pairs (two papillary and two ventricle) thus allowing the control experiments to be carried out in one of the pairs, meaning with rising quantities of DMSO equivalent to those used to dilute the substances. The reversibility of the effect of the substances was investigated at the end of each experiment, noting the recovery of the muscle twitches after bathing the preparation with Tyrode's solution.

[1] = tested on: left ventricle bundles of a rat heart; assay: Isometric tension in ventricular bundles; format: cell-based; settings: for muscular response in ventricular bundles: concentration not given, alterations not greater than 10%
Method: as §1, §2, §3, §4

[2] = tested on: rat aorta rings with the vascular endothelium preserved; assay: Phenylephrine-induced contracture in aorta rings with preserved endothelium; format: cell-based; settings: phenylephrine 10 μM; for IC50: Rattus norvegicus, with endothelium, six experiments, read-out: CI50 (μM) Average ± SEM
Method: as §1
(§5) Male Wistar rats weighing between 240-280 grams were sacrificed through dislocation of the cervical column under anesthesia using ethyl ether. The aorta artery was removed and transferred to a Petri dish containing modified Tyrode's solution whose composition is described in Table 3 below, where the vessel was cleaned and the connective tissue was removed. According to the scheduled Experiment Protocol, the vascular endothelium was removed mechanically with the assistance of a polyethylene rod. The artery was divided into rings with a width of 2-3 mm. Two hooks were placed in the wall of the vessel in order to record the tension generated by the muscle in a transversal direction. To do so, one of the hooks was tied to a fixed point in the chamber and the other to a power transducer (FT 03) for recording the isometric tension. The tension generated by the muscle was transformed into a digitized electric signal (Digidata 1322A) and stored in a computer for subsequent analysis using the Axoscope 8.0 program (Axon Instruments, Inc). The chamber was filled with Krebs solution, oxygenated and kept at a temperature of 37° C.
(§6) After stabilizing the preparation, approximately 120 minutes, the Experiment Protocol began. Initially, in order to identify the presence or absence of the vascular endothelium, the preparation was exposed to phenylephrine (10 μM) and when the contracture in response to this substance was stabilized, acetylcholine (10 μM) was added to the nutrient solution. Relaxation of over 80% in response to the acetylcholine indicated the full integrity of the endothelium and relaxation of less than 10% indicated the absence of endothelium. The tissues in which the relaxation intensity fell between >10% and <80% were discarded. In order to investigate the vasodilator effect of the different L294 analogs, they were added to the experiment chambers in rising concentration after the contracture stabilization of the vessel induced by phenylephrine. The tension registered after treatment with each of the L294 analog concentrations was normalized as a function of the amplitude of the contracture triggered by phenylephrine. For the purpose of comparing the potency of some of the L294 analogs, the Cl50 was determined for each experiment using the y=yo+ae^−bx equation and their mean was used for the statistical analysis.

[3] = tested on: aorta rings with no preserved endothelium; assay: Phenylephrine-induced contracture in aorta rings without endothelium; format: cell-based, rat; settings: phenylephrine 10 μM; for IC50: Rattus norvegicus, without endothelium, six experiments, read-out: CI50 (MM) Average ± SEM; for vasodilatory / relaxing effect on phenylephrine contracture, without endothelium: result in words
Method: as §1, §5, §6
The importance of the presence of vascular endothelium in the vasodilatory action of the L294 analogs was assessed in experiments in which these cells were removed mechanically. […] When the findings of the experiments without the endothelium were analyzed as a whole, the absence of the L790 effect was confirmed. […] The maximum relaxation caused by the L787 and L789 analogs was less than 50% of the control, and the other analogs caused relaxation in the following decreasing order of efficacy: L785>L788>L786. Once again, attention is drawn to the marked efficiency of the L785 and L788 analogs.

[4] = tested on: extensor digitorium longus (EDL) muscle; assay: Electrically induced twitch amplitude in fast-fiber skeletal muscle (EDL); format: cell-based, mice; settings: for EDL twitch amplitude 30 min-Washing (% of the control): 30 min after washing
Method: (§7) Male mice weighing 22-28 g were sacrificed through cervical dislocation and the extensor digitorium longus (EDL) and soleus (SOL) muscles were dissected in a Ringer-Krebs solution, whose composition is given in Table 9, at room temperature. The muscles were placed in vertical chambers with a capacity of 10 ml, and were fixed by their ends to the stimulation electrode fixation rod and a power transducer (Grass FT03) for registering muscle twitches. The chamber solution was bubbled continuously with a carbogenic mixture (95% O2/5% CO2) and kept at a temperature of 37° C. The muscles were stimulated electrically through a stimulator (Grass S88) at a frequency of 0.2 Hz, at 37° C. After the stabilization of the muscle twitches (±30 minutes) a control record was taken in the absence of the drug, and subsequently rising concentrations (from 10 μM to 200 μM) of the L294 derivatives were added every ten minutes, diluted in DMSO. […] The signals recorded by the transducer were amplified (Cyberamp) and the isometric tension was digitized (Digidata 1322A) and stored on a computer. The screening and analysis of the experiment was handled through the use of the Axoscope 8.0 program. (Zapata-Sudo, 2003).
(§8) A measurement of the electrically-induced twitch amplitude was selected to assist the effects of the L294 analogs on the skeletal muscle inotropism. One muscle consisting of fast fibers (extensor digitorium longus-EDL) and the other of slow fibers (soleus-SOL) taken from mice were selected for this purpose. Differences in the timing of the twitches between the fast and slow muscles are shown at the faster recording speed. […] Washing the preparation with Krebs solution caused a partial reversion of the effects induced by the L786.

soleus (SOL) muscle = assay: Electrically induced twitch amplitude in slow-fiber skeletal muscle (SOL); format: cell-based, mice; settings: for SOL twitch amplitude 30 min-Washing (% of the control): 30 min after washing
Method: as §7, §8

[5] = tested on: corpus cavernosa of a male guinea pig; assay: Phenylephrine-induced contracture in corpus cavernosa; format: cell-based; settings: 200 μM; phenylephrine 30 μM
Method: It is noted that L788 concentration-dependent inhibition occurred for the contractile response of the corpus cavernosa.
This same Protocol Experiment was repeated for the other derivatives being tested and for the solvent separately (FIG. 11). It was noted that only L788 caused significant reaction, where the amplitude of the contracture at a concentration of 200 μM was 46.5±8.8% of the control. […] The effect of the solvent (DMSO) was tested at volumes corresponding to those used for the derivatives, and was unable to cause any significant alterations to the contractility of this tissue.

[6] = tested on: rat aorta rings with preserved endothelium; assay: KCl-induced contracture in aorta rings with preserved endothelium; format: cell-based; settings: KCl 40 mM
Method: as §1, §5, §6
The effects of the L294 analogs were investigated in rat aorta rings with preserved endothelium whose contracture was induced by increasing the extra-cellular concentration of KCl to 40 mM. Of the seven L294 analogs, this test was carried out only with the L785, L786, L789 and L790, in this group of experiments.

[7] = tested on: rat aorta rings with no endothelium; assay: KCl-induced contracture in aorta rings without endothelium; format: cell-based; settings: Rattus norvegicus; KCl 40 mM; without endothelium; six experiments; read-out: CI50 (μM) Average ± SEM
Method: as §1, §5
as §6, with “[…] […]” for “In order to investigate the vasodilator effect of the different L294 analogs, they were added to the experiment chambers in rising concentration after the contracture stabilization of the vessel induced by phenylephrine. The tension registered after treatment with each of the L294 analog concentrations was normalized as a function of the amplitude of the contracture triggered by phenylephrine.”

| SMILES | maximum alterations to the papillary muscle twitches (rat papillary muscle) | muscular response in ventricular bundles [1] | IC50 [2] [µM] | maximum inhibition levels of phenylephrine contracture, with endothelium [2] [%] | IC50 [3] [µM] | EDL twitch amplitude 200 μM (% of the control) [4] | EDL twitch amplitude 30 min-Washing (% of the control) [4] | SOL twitch amplitude 200 μM (% of the control) (soleus (SOL) muscle) | amplitude of the papillary muscle twitches (rat papillary muscle) | muscle twitches / contractility in ventricular bundles ([1]; 100 μM) | amplitude of the phenylephrine contracture in rings with whole endothelium ([2]; maximum effect) | amplitude of the phenylephrine-induced contracture of the corpus cavernosa [5] | SOL twitch amplitude 30 min-Washing (% of the control) (soleus (SOL) muscle) | amplitude of the KCl contracture, with endothelium ([6]; 200 μM stated for L790) | CI50 (μM) Average ± SEM ([6]; with endothelium, six experiments) | inhibition of the KCl contracture, with endothelium ([6]; up to 100 μM, result in words) | vasodilatory / relaxing effect on phenylephrine contracture, without endothelium [3] | IC50 [7] [µM] |
| --- | --- | --- | --- | --- | --- | --- | --- | --- | --- | --- | --- | --- | --- | --- | --- | --- | --- | --- |
| Cc1ccc(/C=N/NC(=O)c2ccc3c(c2)OCO3)s1 [L787, 1,3-Benzodioxol-5-carboxylic acid, [1-(5-methyl-thiophene-2-yl)-meth-(E)-ylidene]-hydrazide] | 115.0±5.0 % of the control | 105±6.9 % of the control | 293 ± 76 | 37.1±7.0 | 273 ± 22 | 37.8±3.5 % of the control | 38.6 ± 2.5 % of the control | 47.6±4.2 % of the control |  |  |  |  |  |  |  |  |  |  |
| C=CCN(/N=C/c1cccs1)C(=O)c1ccc2c(c1)OCO2 [L788, 1,3-Benzodioxol-5-carboxylic acid, N′-[1-thiophene-2-yl-meth-(E)-ylidene]-N-allyl-hydrazide] |  |  | 67.9 ± 6.5 |  | 65.7 ± 8 | 47.6±5.4 % of the control | 26.8 ± 2.3 % of the control | 45.1±5.1 % of the control | 81.2±2.6 % of the control | 74.9±5.1 % of the control | 10.4±3.2 % of the control | 46.5±8.8 % of the control | 37.8 ± 4.7 % of the control |  |  |  |  |  |
| O=C(N/N=C/c1ccc([N+](=O)[O-])s1)c1ccc2c(c1)OCO2 [L790, 1,3-Benzodioxol-5-carboxylic acid, [1-(5-nitro-thiophene-2-yl)-meth-(E)-ylidene]-hydrazide] | 87.8±5.6 % of the control | 92.3±1.6 % of the control | 216 ± 39.3 | 47.0±5.9 |  | 52.2±3.4 % of the control and 52.2 ± 3.8 % of the control | 49.2 ± 5.1 % of the control | 71.3±5.2 % of the control |  |  |  |  | 70.8 ± 7.7 % of the control | 74.9±8.8 % of the control | cannot be determined | insignificant | absence of the relaxing effect; also recorded: lacked vasodilatory action; also recorded: did not cause a significant relaxing effect | 123 ± 17.3 |
| O=C(NNCc1cccs1)c1ccc2c(c1)OCO2 [L791, 1,3-Benzodioxol-5-carboxylic acid, N′-thiophene-2-ylmethyl-hydrazide] | 92.4±2.5 % of the control | 89.4±4.5 % of the control | 173 ± 26.7 | 59.2±7.8 |  | 45.8±6.9 % of the control and 45.9 ± 6.9 % of the control |  | 69.3±4.8 % of the control | did not significantly alter the contractile response |  |  |  | 74.4 ± 13.8 % of the control |  |  |  | did not result in any vasodilatory activity; also recorded: lacked vasodilatory action |  |
